{"source": "paper PMC8401859", "about": "(Molecules, 2021)", "key": {"GST-CK1δ": {"molecular_target": "GST-CK1δ (Homo sapiens, UniProt P48730)", "sequence (P48730 whole entry)": "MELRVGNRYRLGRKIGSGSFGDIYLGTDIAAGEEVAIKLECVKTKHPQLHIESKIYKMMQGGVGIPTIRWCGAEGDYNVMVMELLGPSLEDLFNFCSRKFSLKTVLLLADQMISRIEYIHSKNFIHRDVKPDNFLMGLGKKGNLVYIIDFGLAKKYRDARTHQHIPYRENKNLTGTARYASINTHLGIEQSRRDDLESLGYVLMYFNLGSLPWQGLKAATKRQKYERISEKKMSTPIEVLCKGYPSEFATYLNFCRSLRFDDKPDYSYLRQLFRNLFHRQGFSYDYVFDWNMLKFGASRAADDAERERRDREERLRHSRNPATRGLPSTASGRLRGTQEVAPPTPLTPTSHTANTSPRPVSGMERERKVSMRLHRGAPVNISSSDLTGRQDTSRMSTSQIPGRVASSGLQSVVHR", "assay": "radiometric in vitro kinase reaction, GST-CK1δ, phosphate incorporation into α-casein", "experimental": "(§1) All in vitro kinase reactions were performed at 30 °C in a total volume of 15 µL containing 25 mM Tris-HCl (pH 7.0), 10 mM MgCl2, 100 µM EDTA and 0.4 pmol [γ-^32P]-ATP. […] GST- or 6×His-tagged CK1δ or CK1ε were used as enzymes in 7, 70 or 335 nM concentration. Additionally, a reaction without enzyme was performed and used to determine the background signal specifying the minimal usable enzyme concentration (signal to background ratio ≥10). Reactions were stopped by adding 3 µL of 5× SDS loading buffer and boiling at 95 °C for 5 min. Proteins were separated by SDS-PAGE and stained with Coomassie Brilliant Blue R250 (Waldeck GmbH & Co. KG, Muenster, Germany). Radioactively labelled proteins were visualized by autoradiography. For quantification, phosphorylated proteins were excised from dried gels and phosphate incorporation was measured via Cherenkov counting.\n(§2) Raw data was used to calculate enzyme velocity (V) (phosphate transfer per min). V was plotted over ATP concentration and fitted to the Michaelis-Menten model using GraphPad Prism 7 (GraphPad Software, La Jolla, CA, USA). Km was calculated as the concentration of substrate needed to get half-maximal velocity. In order to determine IC50 values, raw data was transformed from initially measured cpm values to pmol of transferred phosphate. Subsequently data was transformed logarithmically (X = log(X)), normalized to DMSO (100%) and zero (0%) and finally fit to sigmoidal dose-response curves (variable slope) with nonlinear regression using GraphPad Prism 7."}, "6×His-CK1δ": {"molecular_target": "6×His-CK1δ (Homo sapiens, UniProt P48730)", "sequence (P48730 whole entry)": "as above", "assay": "radiometric in vitro kinase reaction, 6×His-CK1δ, phosphate incorporation into α-casein", "experimental": "as §1, §2"}, "CK1δ of yeast origin": {"test_system": "CK1δ of yeast origin", "details": "Working Group B, ATP 100 µM; cited from earlier work"}, "CK1δ(1–294)": {"test_system": "CK1δ(1–294)", "details": "Working Group A, ATP 20 µM; cited from earlier work"}, "CK1δ [1]": {"test_system": "CK1δ", "details": "Working Group A, ATP 10 µM; cited from earlier work"}, "CK1δ [2]": {"test_system": "CK1δ", "set-up": "method as in PMID 31817920", "details": "ATP 10 µM, read-out: IC50 in Literature; cited from earlier work"}, "CK1εΔ319": {"test_system": "CK1εΔ319", "set-up": "method as in PMID 17502429", "details": "Working Group A, CK1εΔ319, ATP 5 µM; cited from earlier work"}, "6×His-CK1ε [3]": {"test_system": "6×His-CK1ε", "set-up": "method as in PMID 19458106", "details": "Working Group B, ATP 10 µM; cited from earlier work"}, "untagged CK1δ": {"test_system": "untagged CK1δ", "set-up": "method as in PMID 19458106", "details": "CK1-specific peptide substrate, ATP 10 µM, luminescence-based, read-out: IC50 in Literature; cited from earlier work"}, "6×His-CK1ε [4]": {"molecular_target": "T1, 6×His-CK1ε (Homo sapiens, UniProt P49674)", "T1 construct": "made in house", "T1 sequence (P49674 whole entry)": "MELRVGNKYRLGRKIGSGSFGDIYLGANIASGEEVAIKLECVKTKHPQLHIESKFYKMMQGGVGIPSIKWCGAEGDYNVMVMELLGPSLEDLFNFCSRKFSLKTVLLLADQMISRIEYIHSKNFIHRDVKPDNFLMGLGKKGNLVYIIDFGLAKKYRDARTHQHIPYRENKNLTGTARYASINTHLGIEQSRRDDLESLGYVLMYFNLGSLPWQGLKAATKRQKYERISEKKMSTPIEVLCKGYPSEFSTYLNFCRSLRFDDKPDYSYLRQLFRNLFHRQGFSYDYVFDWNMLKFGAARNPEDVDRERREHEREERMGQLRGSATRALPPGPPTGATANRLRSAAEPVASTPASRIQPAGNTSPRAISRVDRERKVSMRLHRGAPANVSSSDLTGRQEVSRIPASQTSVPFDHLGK", "assay": "radiometric in vitro kinase reaction, 6×His-CK1ε, phosphate incorporation into α-casein", "format": "biochemical", "experimental": "as §1\nRaw data was used to calculate enzyme velocity (V) (phosphate transfer per min). V was plotted over ATP concentration and fitted to the Michaelis-Menten model using GraphPad Prism 7 (GraphPad Software, La Jolla, CA, USA). Km was calculated as the concentration of substrate needed to get half-maximal velocity. In order to determine IC50 values, raw data was transformed from initially measured cpm values to pmol of transferred phosphate. […]"}}, "note": "Where two headings read alike, the source gives them in different places.", "data": [{"smiles": "Nc1ncnc2c1ncn2[C@@H]1O[C@H](COP(=O)(O)OP(=O)(O)OP(=O)(O)O)[C@@H](O)[C@H]1O", "note": "[ATP]", "values": [{"measurement": "Km", "setting": "GST-CK1δ; read-out: Km (ATP), GST-CK1δ 7 nM, 10 min, ATP 0.5 to 100 µM, Michaelis-Menten", "value": 6, "unit": "µM"}, {"measurement": "Km", "setting": "6×His-CK1δ; read-out: Km (ATP), 6×His-CK1δ 70 nM, 10 min, ATP 0.5 to 100 µM, Michaelis-Menten", "value": 14, "unit": "µM"}]}, {"smiles": "NC(=O)c1ccc(-c2nc(-c3ccc4c(c3)OCCO4)c(-c3ccccn3)[nH]2)cc1", "note": "[D4476]", "values": [{"measurement": "IC50", "setting": "CK1δ of yeast origin", "value": 200, "unit": "nM"}, {"measurement": "IC50", "setting": "CK1δ(1–294)", "value": 300, "unit": "nM"}]}, {"smiles": "COc1cc(OC)c(C=C2C(O)=Nc3ccccc32)c(OC)c1", "note": "[IC261]", "values": [{"measurement": "IC50", "setting": "CK1δ [1]", "value": 1000, "unit": "nM"}, {"measurement": "IC50", "setting": "CK1δ of yeast origin", "value": 2500, "unit": "nM"}]}, {"smiles": "O=C(Nc1nc2ccc(C(F)(F)F)cc2s1)Sc1nccc(=O)n1Cc1ccc(OC(F)(F)F)cc1", "note": "[Liu-20]", "values": [{"measurement": "IC50", "setting": "CK1δ [2]", "value": 86, "unit": "nM"}, {"measurement": "IC50", "setting": "GST-CK1δ; GST-CK1δ 7 nM, 10 min, ATP equal to Km (ATP) 6 µM, α-casein 10 µM, 30 °C", "value": 396, "unit": "nM"}, {"measurement": "Ki", "setting": "GST-CK1δ; read-out: Kic, GST-CK1δ, Kic = IC50/2 (Cheng-Prusoff, ATP = Km)", "value": 198, "unit": "nM"}, {"measurement": "IC50", "setting": "6×His-CK1δ; 6×His-CK1δ 70 nM, 10 min, ATP equal to Km (ATP) 14 µM, α-casein 10 µM, 30 °C", "value": 404, "unit": "nM"}, {"measurement": "Ki", "setting": "6×His-CK1δ; read-out: Kic, 6×His-CK1δ, Kic = IC50/2 (Cheng-Prusoff, ATP = Km)", "value": 202, "unit": "nM"}]}, {"smiles": "Nc1nccc(-c2c(-c3ccc(F)cc3)ncn2C2CCCCC2)n1", "note": "[PF-670462]", "values": [{"measurement": "IC50", "setting": "CK1εΔ319", "value": 8, "unit": "nM"}, {"measurement": "IC50", "setting": "6×His-CK1ε [3]", "value": 80, "unit": "nM"}, {"measurement": "IC50", "setting": "untagged CK1δ", "value": 13, "unit": "nM"}]}, {"smiles": "Nc1ncnc2c1c(COc1cccc(Cl)c1)nn2C1CCOCC1", "note": "[PF-4800567]", "values": [{"measurement": "IC50", "setting": "6×His-CK1ε [4]", "value": 72.3, "unit": "nM"}, {"measurement": "Ki", "setting": "6×His-CK1ε [4]; 6×His-CK1ε, Kic = IC50/2 (Cheng-Prusoff, ATP = Km)", "value": 36.2, "unit": "nM"}]}]}
